Source: patent publication EP2688405B1 (priority 2011, dated 2012)
In brackets after ≈: the same amount, converted by molar mass. Where two headings read alike, the source gives them in different places.

Tests used:
Assay type in all cases: cell-based
[1] = tested on: Pseudomonas aeruginosa ATCC 27853; experiment: Minimum Inhibitory Concentration (MIC) test, broth microdilution; conditions: ATCC 27853 / DSM 1117, IsoSensitest broth, 24 hours at 37°C, no growth (OD smaller than 0.1)
[2] = tested on: Staphylococcus aureus ATCC 29213; experiment: as above; conditions: ATCC 29213 / DSM 2569, IsoSensitest broth, 24 hours at 37°C, no growth (OD smaller than 0.1)
Botrytis cinerea = experiment: Microtest with mixtures of active compounds, grey mold (Botrci); conditions: single compound
Phytophthora infestans = conditions: Phytin, single compound
Septoria tritici = experiment: Microtest with mixtures of active compounds, leaf blotch on wheat (Septtr)
Pyricularia oryzae = conditions: Pyrior, single compound

Compound: CCn1cc(C(=O)O)c(=O)c2ccc(C)nc21 [Control 3, Nalidixic acid]
- MIC [1]: 1020 mg/L (≈ 4410 µM)
- MIC [2]: 64 mg/L (≈ 276 µM)

Compound: Fc1ccc([C@@]2(Cn3ncnc3S)O[C@@H]2c2ccccc2Cl)c(F)c1 (relative stereo) [Azole*, 2-[rel-(2S;3R)-3-(2-chlorophenyl)-2-(2,4-difluorophenyl)-oxiranylmethyl]-2H-[1,2,4]triazole-3-thiol]
- Observed efficacy (Botrytis cinerea; 1 ppm): 15%
- Observed efficacy (Phytophthora infestans; 4 ppm): 20%
- Observed efficacy (Septoria tritici; 0.25 ppm): 4%
- Observed efficacy (Septoria tritici; 4 ppm): 40%
- Observed efficacy (Pyricularia oryzae; 16 ppm): 65%

Compound: COC(=O)N(OC)c1ccccc1COc1ccn(-c2ccc(Cl)cc2)n1 [Pyraclostrobin]
- Observed efficacy (Botrytis cinerea; 0.016 ppm): 0%
- Observed efficacy (Phytophthora infestans; 0.063 ppm): 24%
- Observed efficacy (Septoria tritici; Septtr, single compound, 0.001 ppm): 38%

Compound: Fc1ccc([C@]2(Cn3cncn3)O[C@H]2c2ccccc2Cl)cc1 (racemic) [Epoxiconazole]
- Observed efficacy (Botrytis cinerea; 0.063 ppm): 34%
- Observed efficacy (Phytophthora infestans; 0.25 ppm): 11%
- Observed efficacy (Pyricularia oryzae; 0.25 ppm): 5%

Compound: CC1=C(C(=O)O)N2C(=O)[C@@H](NC(=O)[C@H](N)c3ccccc3)[C@H]2SC1 [Control 1, Cephalexine]
- MIC [1]: > 4100 mg/L
- MIC [2]: 4 mg/L (≈ 11.5 µM)

Compound: Cn1cc(C(=O)Nc2ccccc2-c2cc(F)c(F)c(F)c2)c(C(F)F)n1 [Fluxapyroxad]
- Observed efficacy (Botrytis cinerea; 0.016 ppm): 13%
- Observed efficacy (Phytophthora infestans; 0.063 ppm): 12%

Compound: CC(=O)[O-].CCCCn1cc[n+](CCCC)c1 [C2, 1,3-Dibutylimidazolium acetate]
- MIC [1]: 4100 mg/L
- MIC [2]: 2050 mg/L
